# Experimental data as given in patent publication US20110245283A1, “Methods for predicting the response to statins” (priority 2009, published 2011).
# Read-outs that look alike come from different tables or passages of the source.
# Experiments:
# LDL [1] = details: cited from earlier work
# LDL [2] = assay: Logistic regression models of attaining LDL goal: odds ratios for concurrent or prior drug doses; assay type: in vivo, patients; details: for OR: odds of goal
# Description: G. Covariates for the multivariate model—The following list includes the predictors one or more of which may be tested in the multivariate models. • 1. AGE: (expressed in units of 10 years) at time that the new statin prescription was released • 2. GENDER, E. G., MALE: 1=yes, 0=no • 3. BMI (kg/M^2): last value before release date • 4. HBA1C (hemoglobin Alc): last value before release date • 5. PLDL: preceding LDL level expressed in e.g. 10 mg/dl units • 6. Statins • a. PLOVA: prior daily dose of lovastatin expressed in e.g. 10 mg units • b. […] For additional drugs: • a. AMIODOSE: amiodarone dose in mg/day • b. CARBDOSE: carbemazepine dose in mg/day • c. PIOGDOSE: pioglitazone dose expressed as number of 15 mg doses per day • d. […] METFDOSE: metformin dose expressed as number of 1000 mg doses per day • f. PHENDOSE: phenyloin dose in mg/day • g. RISPDOSE: risperidone dose in mg/day • h. ROSIDOSE: rosiglitazone dose in mg/day • i.
# Body mass index (BMI) was chosen as a covariate of statin response because obese patients tend to consume a diet high in cholesterol. It was hypothesized that they would respond less well to statins because their hypercholesterolemia was more likely to be mediated by dietary indiscretion than excessive LDL synthesis. […] Metformin and the thiazolidinediones were chosen because they reduce LDL levels in diabetic patients through mechanisms that may or may not be affected by concurrent statin treatment. The remaining non-statin drugs were chosen because they are commonly used drugs that potentiate the effect of statins. They were selected by reviewing the official on-line VA pharmaceutical reference (Micromedex®) for major interactions mediated by impaired statin metabolism. […] The daily dose of the non-statin drug was calculated by the method described in Section B.
# H. Assembling the predictor file—The patient identifier was used to link the new statin prescription type and dose, the preceding LDL above goal, and the type and dose of the previous statin (if any) with the patient's most recent HbA1c, most recent BMI, and the daily doses of 9 drugs with major statin interactions that were active at the time the new prescription was released.
# The dependent variable was attainment of goal (LDL <100 mg/dl). […] Step selections were based upon the maximal likelihood method with α<0.15 to enter and ≧0.15 to remove.
# LDL [3] = assay: Proportion of CAD patients attaining LDL goal (<100 mg/dl) on a statin dose; validation sets stratified by predicted probability; details: for Proportion of patients achieving goal: validation set; for Chance of success (reaching goal) of any dose choice: this study
structure (smiles),measurement,setting,value
"CC(C)c1nc(N(C)S(C)(=O)=O)nc(-c2ccc(F)cc2)c1/C=C/[C@@H](O)C[C@@H](O)CC(=O)O [Rosuva, rosuvastatin]",Average LDL reduction,LDL [1]; Dose 5 mg,43%
same,Average LDL reduction,LDL [1]; Dose 10 mg,50%
same,Average LDL reduction,LDL [1]; Dose 20 mg,53%
same,Average LDL reduction,LDL [1]; Dose 40 mg,62%
"CC(C)c1c(C(=O)Nc2ccccc2)c(-c2ccccc2)c(-c2ccc(F)cc2)n1CC[C@@H](O)C[C@@H](O)CC(=O)O [Atorva, atorvastatin]",Average LDL reduction,LDL [1]; Dose 10 mg,36%
same,Average LDL reduction,LDL [1]; Dose 20 mg,46%
same,Average LDL reduction,LDL [1]; Dose 40 mg,51%
same,Average LDL reduction,LDL [1]; Dose 80 mg,54%
"CC(C)n1c(/C=C/C(O)CC(O)CC(=O)O)c(-c2ccc(F)cc2)c2ccccc21 (stereo not shown) [Fluva, fluvastatin]",Average LDL reduction,LDL [1]; Dose 20 mg,17%
same,Average LDL reduction,LDL [1]; Dose 40 mg,23%
same,Average LDL reduction,LDL [1]; Dose 80 mg,33%
"CC[C@H](C)C(=O)O[C@H]1C[C@H](O)C=C2C=C[C@H](C)[C@H](CC[C@@H](O)C[C@@H](O)CC(=O)O)[C@H]21 [Prava, pravastatin]",Average LDL reduction,LDL [1]; Dose 10 mg,19%
same,Average LDL reduction,LDL [1]; Dose 20 mg,24%
same,Average LDL reduction,LDL [1]; Dose 40 mg,34%
same,Average LDL reduction,LDL [1]; Dose 80 mg,40%
"CCC(C)(C)C(=O)O[C@H]1C[C@@H](C)C=C2C=C[C@H](C)[C@H](CC[C@@H]3C[C@@H](O)CC(=O)O3)[C@H]21 [Simvastatin, simvastatin]",Reduction of odds of reaching goal,"LDL [2]; for every 10 mg/day in the previous simvastatin dose, simvastatin 20 model",70%
same,OR,"LDL [2]; Model 1, Simvastatin 10 mg, per 10 mg/day",0.130
same,OR,"LDL [2]; Model 1, Simvastatin 20 mg, per 10 mg/day",0.355
same,OR,"LDL [2]; Model 1, Simvastatin 40 mg, per 10 mg/day",0.771
same,OR,"LDL [2]; Model 1, Simvastatin 80 mg, per 10 mg/day",0.900
same,OR,"LDL [2]; Simvastatin 10 mg [B] model (includes BMI; n = 136), per dose increment",0.0593
same,OR,"LDL [2]; Simvastatin 10 mg [C] model (excludes BMI; n = 219), per dose increment",0.149
same,OR,"LDL [2]; Simvastatin 20 mg model (n = 374), per dose increment",0.356
same,OR,"LDL [2]; Simvastatin 40 mg model (n = 698), per dose increment",0.788
same,OR,"LDL [2]; Simvastatin 80 mg model (n = 481), per dose increment",0.887
same,Proportion of patients achieving goal,"LDL [3]; Model 1, simvastatin 10 mg, predicted probability 0-19%",14.3%
same,Proportion of patients achieving goal,"LDL [3]; Model 1, simvastatin 10 mg, predicted probability 20-39%",31.8%
same,Proportion of patients achieving goal,"LDL [3]; Model 1, simvastatin 10 mg, predicted probability 40-59%",57.6%
same,Proportion of patients achieving goal,"LDL [3]; Model 1, simvastatin 10 mg, predicted probability 60-79%",69.7%
same,Proportion of patients achieving goal,"LDL [3]; Model 1, simvastatin 10 mg, predicted probability 80-100%",100%
same,Proportion of patients achieving goal,"LDL [3]; Model 1, simvastatin 20 mg, predicted probability 0-19%",11.1%
same,Proportion of patients achieving goal,"LDL [3]; Model 1, simvastatin 20 mg, predicted probability 20-39%",32.9%
same,Proportion of patients achieving goal,"LDL [3]; Model 1, simvastatin 20 mg, predicted probability 60-79%",66.2%
same,Proportion of patients achieving goal,"LDL [3]; Model 1, simvastatin 40 mg, Overall",57.0%
same,Proportion of patients achieving goal,"LDL [3]; Model 1, simvastatin 40 mg, predicted probability 0-19%",36.4%
same,Proportion of patients achieving goal,"LDL [3]; Model 1, simvastatin 40 mg, predicted probability 20-39%",30.4%
same,Proportion of patients achieving goal,"LDL [3]; Model 1, simvastatin 40 mg, predicted probability 40-59%",54.2%
same,Proportion of patients achieving goal,"LDL [3]; Model 1, simvastatin 40 mg, predicted probability 60-79%",67.2%
same,Proportion of patients achieving goal,"LDL [3]; Model 1, simvastatin 40 mg, predicted probability 80-100%",0%
same,Proportion of patients achieving goal,"LDL [3]; Model 1, simvastatin 80 mg, Overall",61.9%
same,Proportion of patients achieving goal,"LDL [3]; Model 1, simvastatin 80 mg, predicted probability 20-39%",42.7%
same,Proportion of patients achieving goal,"LDL [3]; Model 1, simvastatin 80 mg, predicted probability 40-59%",42.7%
same,Proportion of patients achieving goal,"LDL [3]; Model 1, simvastatin 80 mg, predicted probability 60-79%",68.9%
same,Proportion of patients achieving goal,"LDL [3]; Model 1, simvastatin 80 mg, predicted probability 80-100%",74.3%
same,Proportion of patients achieving goal,"LDL [3]; Simvastatin 10 mg [A] model, predicted probability 0-19%",8.3%
same,Proportion of patients achieving goal,"LDL [3]; Simvastatin 10 mg [A] model, predicted probability 20-39%",29.7%
same,Proportion of patients achieving goal,"LDL [3]; Simvastatin 10 mg [A] model, predicted probability 40-59%",62.1%
same,Proportion of patients achieving goal,"LDL [3]; Simvastatin 10 mg [A] model, predicted probability 60-79%",68.6%
same,Proportion of patients achieving goal,"LDL [3]; Simvastatin 10 mg [A] model, predicted probability 80-100%",75.0%
same,Proportion of patients achieving goal,"LDL [3]; Simvastatin 10 mg [B] model, Overall",52.1%
same,Proportion of patients achieving goal,"LDL [3]; Simvastatin 10 mg [B] model, predicted probability 0-19%",10.0%
same,Proportion of patients achieving goal,"LDL [3]; Simvastatin 10 mg [B] model, predicted probability 20-39%",26.3%
same,Proportion of patients achieving goal,"LDL [3]; Simvastatin 10 mg [B] model, predicted probability 40-59%",58.8%
same,Proportion of patients achieving goal,"LDL [3]; Simvastatin 10 mg [B] model, predicted probability 60-79%",70.6%
same,Proportion of patients achieving goal,"LDL [3]; Simvastatin 10 mg [B] model, predicted probability 80-100%",100%
same,Proportion of patients achieving goal,"LDL [3]; Simvastatin 10 mg [C] model, predicted probability 0-19%",11.8%
same,Proportion of patients achieving goal,"LDL [3]; Simvastatin 10 mg [C] model, predicted probability 20-39%",31.8%
same,Proportion of patients achieving goal,"LDL [3]; Simvastatin 10 mg [C] model, predicted probability 40-59%",60.0%
same,Proportion of patients achieving goal,"LDL [3]; Simvastatin 10 mg [C] model, predicted probability 60-79%",74.2%
same,Proportion of patients achieving goal,"LDL [3]; Simvastatin 10 mg [C] model, predicted probability 80-100%",75.0%
same,Proportion of patients achieving goal,"LDL [3]; Simvastatin 20 mg [C] model, predicted probability 0-19%",10.5%
same,Proportion of patients achieving goal,"LDL [3]; Simvastatin 20 mg [C] model, predicted probability 20-39%",35.1%
same,Proportion of patients achieving goal,"LDL [3]; Simvastatin 20 mg [C] model, predicted probability 60-79%",65.3%
same,Proportion of patients achieving goal,"LDL [3]; Simvastatin 40 mg model, Overall",57.4%
same,Proportion of patients achieving goal,"LDL [3]; Simvastatin 40 mg model, predicted probability 0-19%",20.0%
same,Proportion of patients achieving goal,"LDL [3]; Simvastatin 40 mg model, predicted probability 20-39%",38.6%
same,Proportion of patients achieving goal,"LDL [3]; Simvastatin 40 mg model, predicted probability 40-59%",54.6%
same,Proportion of patients achieving goal,"LDL [3]; Simvastatin 40 mg model, predicted probability 60-79%",67.0%
same,Proportion of patients achieving goal,"LDL [3]; Simvastatin 40 mg model, predicted probability 80-100%",65.0%
same,Proportion of patients achieving goal,"LDL [3]; Simvastatin 80 mg model, Overall",61.9%
same,Proportion of patients achieving goal,"LDL [3]; Simvastatin 80 mg model, predicted probability 20-39%",41.7%
same,Proportion of patients achieving goal,"LDL [3]; Simvastatin 80 mg model, predicted probability 40-59%",41.9%
same,Proportion of patients achieving goal,"LDL [3]; Simvastatin 80 mg model, predicted probability 60-79%",72.8%
same,Proportion of patients achieving goal,"LDL [3]; Simvastatin 80 mg model, predicted probability 80-100%",70.8%
same,Chance of success (reaching goal) of any dose choice,LDL [3]; all choices except 80 mg daily,≤ 60%
same,Chance of success (reaching goal) of any dose choice,LDL [3]; all doses,≤ 62%
